Data taken from patent publication US20140323575A1, “TYROSINE ISOMERS AS THERAPEUTIC AGENTS” (CONSEJO NACIONAL DE INVESTIGACIONES CIENTIFICAS Y TECNICAS …, priority 2011, published 2014).

Tests used:
[1] = Evaluation of toxicity of the tyrosine isomers; format: in vivo, mice; conditions: for health of mice after three weeks of treatment / hematologic populations of the blood or the spleen / histological alterations in analyzed tissues / anti-RRC antibody levels: higher dose; for histological alterations in analyzed tissues: three weeks of treatment; for anti-RRC antibody levels: tumor bearing mice and normal mice
Description: The effect of meta-tyrosine and ortho-tyrosine on the immune response triggered by a conventional antigen was evaluated. Ram red cells (RRC) were used.

LB tumor [2] = test: In vivo growth of s.c. LB tumor implants (primary, secondary under CR, established, ascitic); set-up: species or system mice; conditions: for inhibition of tumor cells in euthymic versus nude mice: mouse, in vivo
STAT3 = test: Western blot of p-STAT3 in LB tumor cells; format: cell-based, mice; conditions: LB cells cultured 8 hours with m-tyrosine (250 μg/mL)
Description: FIG. 8 illustrates the effect of meta-tyrosine on the expression of phosphorylated (p)-Erk 1/2 and p-STAT3 in LB tumor cells using Western blot: 3×10^5 LB tumor cells in 0.1 mL of medium were cultured in the presence of 0.1 mL of meta-tyrosine (m-Tyr; 250 μg/mL), phenylalanine (Phe, 250 μg/mL), meta-tyrosine (250 μg/mL)+phenylalanine (250 μg/mL), or saline for 3 minutes (to measure p-ERK 1/2) or for 8 hours (to measure p-STAT3). Positive control was obtained by treating LB cells with pervanadate. Controls with acting, total ERK 1/2, and total STAT3 were also added. FIG. 8A illustrates a representative experiment showing p-ERK 1/2 expression. FIG. 8B is a histogram showing the mean of 5 experiments; a, P<0.01 versus saline and versus meta-tyrosine+phenylalanine; P<0.02 versus phenylalanine. FIG. 8C illustrates a representative experiment showing p-STAT3 expression. […]
On this basis, we analyzed, first, the effect of m-tyrosine on ERK1 and ERK2 as 2 examples of protein kinases that are activated by the mitogen activated protein/extracellular signal-regulated kinase (MAP/ERK) signal transduction pathway that normally couples intracellular responses associated with cell proliferation, to the binding of growth factors to cell surface receptors (Kohno M, and Pouyssegur J. 2006. Targeting the ERK signaling pathway in cancer therapy. Ann Med; 38:200-211). […]

MC-C tumor cells = test: In vitro proliferation of MC-C tumor cells; format: cell-based; conditions: dose-dependent, not shown
LB tumor [3] = test: In vivo growth of s.c. LB tumor implants (primary, secondary under CR, established, ascitic); set-up: species or system mice; conditions: for growth of LB tumor implant: inoculated at the site of a primary tumor implant or systemically, daily for 8 days
Description: Twenty mice received an s.c. implant of 1×10^6 LB cells in the right flank, and, 7 days later, an s.c. secondary implant of 1×10^5 LB tumor cells in the left flank. […] The remaining 10 mice received 0.2 mL of phenylalanine (500 μg/mL) at the site of the secondary implant, daily, for 8 days, starting 1 hour after the secondary inoculum [CR+Phe (-□-)]. Controls were 10 mice receiving 1×10^5 LB tumor cells in the left flank only [control (-Δ-)]. A fourth group received the tumor inoculum in the left flank but also meta-tyrosine at the site of tumor implant (0.2 mL of 500 μg/mL, n=10) or by the intraperitoneal route (0.5 mL of 1,000 μg/mL, n=6), daily, for 8 days, starting 1 hour after tumor inoculum [control+m-Tyr: (-▴-)]. A fifth group received the tumor inoculum in the left flank and also meta-tyrosine (0.2 mL of 500 μg/mL, n=5) at the site of tumor growth, daily for 5 days, starting (see arrow) when LB was an established tumor measuring 60 to 70 mm^3 [est. LB+m-Tyr: (-X-)]. Abscissa, days after tumor implant in the left flank. Ordinate, volume of the tumors implanted in the left flank. CR and control+m-Tyr versus control: P<0.001 at day 9 and P<0.002 at days 5 and 7; CR and control+m-Tyr versus CR+Phe: P<0.001 at days 5, 7 and […]; est. LB+m-Tyr versus control and CR+Phe: P<0.002 at day 9. Control+tyrosine or saline, control; CR+tyrosine or saline, CR. FIG. 6B is a microscopic view showing many tumor cells expressing Ki-67 protein in both CR+phenylalanine (B1) and control (B2) groups and few tumor cells expressing Ki-67 in both CR (B3) and control+meta-tyrosine (B4) groups (H×400). FIG. 6C illustrates a representative experiment showing the frequency distribution histogram of viable LB cells from a control tumor (C1), from a secondary tumor inhibited by CR (C2), and from a tumor inhibited by periodic intraumoral injection of meta-tyrosine (C3). Samples of tumor cells were collected 9 days after the s.c. inoculation of 1×10^5 LB tumor cells.

C7HI tumor cells = test: In vitro proliferation of C7HI tumor cells; format: cell-based; conditions: dose-dependent, not shown
CEI tumor cells = test: In vitro proliferation of CEI tumor cells; format: cell-based; conditions: dose-dependent, not shown
[4] = test system: Chinese-hamster ovary (CHO) cells; conditions: cited from earlier work; for toxicity to CHO cells: incubated in vitro for 7-10 days
MC-C tumor = test: In vivo growth of s.c. MC-C fibrosarcoma implants; set-up: species or system mice; conditions: for effect on growth of MC-C tumor implants: mouse, in vivo
Description: Twelve mice received a s.c. implant of 5×10^6 MC-C tumor cells in the right flank and 25 days later they received a secondary implant of 2×10^6 MC-C tumor cells in the left flank. […] The remaining 6 mice received 0.2 ml of phenylalanine (500 μg/ml) at the site of the secondary implant, daily, for 19 days, starting 1 hour later than the secondary implant. These secondary implants grew as in 6 controls only receiving the implant in the left flank (tumor volumes of secondary tumor+phenylalanine and of controls, 20 days after the implant in the left flank were =680±152 mm^3 and 524±88 mm^3, respectively). […] Significance: Secondary tumor vs. control: p<0.01; vs. secondary tumor+phenylalanine: p<0.02. Control+m-tyrosine vs. control and vs. secondary tumor+phenylalanine: p<0.02.

Row | Structure (SMILES) | toxic side effects in tumor-bearing mice ([1]; during treatment of MC-C, CEI and C7HI tumors) | health of mice after three weeks of treatment [1] | hematologic populations of the blood or the spleen [1] | histological alterations in analyzed tissues [1] | anti-RRC antibody levels [1] | inhibition of tumor cells in euthymic versus nude mice (LB tumor [2]) | effect on ascitic LB tumor cells (LB tumor [2]; not shown) | activation of STAT3 (p-STAT3 expression) (STAT3) | in vitro proliferation of MC-C tumor cells (MC-C tumor cells) | effect on established s.c. LB tumors (LB tumor [3]; at site of tumor growth, daily for 5 days, tumor 60 to 70 mm^3 at start) | expression of Ki-67 protein in tumor cells (LB tumor [3]; control+m-tyrosine tumors or secondary implants treated with phenylalanine (FIG. 6B)) | growth of LB tumor implant (LB tumor [3]) | tumor growth when treatment was interrupted (LB tumor [3]; mouse, in vivo) | cell-cycle distribution of LB tumor cells (LB tumor [3]; tumor inhibited by exogenous injection (FIG. 6C)) | in vitro proliferation of C7HI tumor cells (C7HI tumor cells) | in vitro proliferation of CEI tumor cells (CEI tumor cells) | toxicity to CHO cells [4] | CHO cells alive 10 days after start of the in vitro culture ([4]; treated with meta-tyrosine) | tumor volume 20 days after the implant in the left flank (MC-C tumor; MC-C implant in left flank only, 0.2 ml of 500 μg/ml daily for 19 days at the site of the implant) | effect on growth of MC-C tumor implants (MC-C tumor)
1 | NC(Cc1cccc(O)c1)C(=O)O (stereo not shown) [meta-tyrosine, 3-hydroxyphenylalanine] | without exhibiting toxic side effects | remained in good health | did not affect | no histological alterations | does not affect | Identical inhibition | inhibitory | significantly reduced | inhibited | inhibitory | low expression of Ki-67 | did not grow | could reassume their growth | a decrease in G2-M phases and an increase of the S phase population | inhibited | inhibited | toxic | 70% | 212±57 mm^3 | sharp inhibitory effects
2 | NC(Cc1ccccc1O)C(=O)O (stereo not shown) [ortho-tyrosine, 2-hydroxyphenylalanine] |  | remained in good health | did not affect | no histological alterations | does not affect | Identical inhibition |  |  | inhibited |  |  | inhibitory |  |  | inhibited | inhibited | toxic |  |  | inhibitory
